According to PMC7352292, “Targeting Pharmacokinetic Drug Resistance in Acute Myeloid Leukemia Cells with CDK4/6 Inhibitors” (Cancers, 2020):
Where two headings read alike, the source gives them in different places.

Key:
[1] = system: PBMC of AML patients; assay: Mitoxantrone accumulation in PBMC of AML patients; format: cell-based, human; settings: 1 µM mitoxantrone, 4 h; for increase of median mitoxantrone accumulation: cmax concentrations, vs untreated control; for effect on median mitoxantrone accumulation: CD34− PBMC, cmax concentrations (0.5 µM abemaciclib, 0.5 µM palbociclib, 7.5 µM ribociclib)
[2] = system: HL-60 ABCB1 cells; assay: Sub-G1 fraction of HL-60 ABCB1 cells; format: cell-based, human; settings: 4 h
Experimental: (§1) The fluorescent substrates daunorubicin (0.2 µM) or mitoxantrone (1 µM) were then added and the suspensions incubated for 4 h at 37 °C and 5% CO2. […] The percentage of cells displaying hypodiploid DNA content is presented as a sub-G1 region of a PI histogram.

[3] = target: T1, AKR1B10 (Homo sapiens, UniProt O60218); assay: Screening for inhibitory activity on recombinant CRE: AKR1B10; format: biochemical; settings: 50 μM inhibitor concentration; mean ± SD, three experiments
T1 construct: made in house; host or cells: Escherichia coli
Text: (§2) Human recombinant carbonyl reducing enzymes CBR1, AKR1A1, AKR1B1, AKR1B10, and AKR1C3 were expressed and isolated by the Escherichia coli expression system as described previously.

[4] = system: HL-60 cells; assay: Sub-G1 fraction of HL-60 parental/control cells; format: cell-based, human; settings: single drug vs untreated control
Experimental: as §1

[5] = target: T2, CBR1 (Homo sapiens, UniProt P16152); assay: Screening for inhibitory activity on recombinant CRE: CBR1; format: biochemical; settings: 50 μM inhibitor concentration; mean ± SD, three experiments
T2 construct: made in house; host or cells: Escherichia coli
T2 sequence (P16152 1-277): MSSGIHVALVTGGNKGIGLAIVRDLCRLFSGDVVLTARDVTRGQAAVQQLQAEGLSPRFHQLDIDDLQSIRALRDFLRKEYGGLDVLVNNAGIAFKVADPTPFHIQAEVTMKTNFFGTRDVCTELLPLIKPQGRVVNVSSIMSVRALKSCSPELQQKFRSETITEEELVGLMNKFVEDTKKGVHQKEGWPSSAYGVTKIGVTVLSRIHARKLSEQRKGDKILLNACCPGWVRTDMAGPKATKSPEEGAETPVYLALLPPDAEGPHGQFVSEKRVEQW
Text: as §2

[6] = cited from earlier work
[7] = target: T3, ABCG2 (Homo sapiens, UniProt Q9UNQ0); assay: Mitoxantrone accumulation in HL-60 ABCG2 cells
T3 sequence (Q9UNQ0 1-655): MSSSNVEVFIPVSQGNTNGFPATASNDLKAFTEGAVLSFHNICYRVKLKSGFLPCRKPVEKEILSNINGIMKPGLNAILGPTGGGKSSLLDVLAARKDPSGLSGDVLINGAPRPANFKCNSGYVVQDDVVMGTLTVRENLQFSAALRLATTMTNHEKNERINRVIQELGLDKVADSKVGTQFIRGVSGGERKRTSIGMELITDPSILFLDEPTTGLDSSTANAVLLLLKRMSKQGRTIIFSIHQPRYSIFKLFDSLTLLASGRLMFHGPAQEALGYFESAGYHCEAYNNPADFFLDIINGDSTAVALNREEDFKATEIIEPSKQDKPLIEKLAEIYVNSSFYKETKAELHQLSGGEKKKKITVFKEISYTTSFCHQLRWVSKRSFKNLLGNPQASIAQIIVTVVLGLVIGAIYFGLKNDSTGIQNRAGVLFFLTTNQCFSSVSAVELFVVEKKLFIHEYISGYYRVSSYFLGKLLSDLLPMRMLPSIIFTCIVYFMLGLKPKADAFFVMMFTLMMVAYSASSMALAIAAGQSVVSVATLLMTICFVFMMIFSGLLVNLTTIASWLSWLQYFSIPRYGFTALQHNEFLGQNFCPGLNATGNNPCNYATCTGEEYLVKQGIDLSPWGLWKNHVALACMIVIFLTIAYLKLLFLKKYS
Experimental: (§3) LY335979 (1 µM) and Ko143 (1 µM) were used as ABCB1 and ABCG2 model inhibitors. After 15 min, daunorubicin (HL-60 and HL-60 ABCB1) or mitoxantrone (HL-60 and HL-60 ABCG2) was added for 1 h at a final concentration of 1 µM (37 °C, 5% CO2). Subsequently, the samples were centrifuged at 150 × g for 5 min, washed in 500 µL ice-cold phosphate buffered saline (PBS), then resuspended again in 500 µL ice-cold PBS and promptly analyzed with a BD FACSCanto II flow cytometer (BD Biosciences, San Jose, CA, USA) using excitation/emission wavelengths 488/670 nm for daunorubicin and 633/660 nm for mitoxantrone.
(§4) The data were statistically analyzed in GraphPad Prism 8.0.1 (GraphPad Software, Inc., San Diego, CA, USA). One-way ANOVA with Dunnett’s post hoc test or Student’s t-test was used for results obtained in vitro, and the nonparametric Mann–Whitney test was used to analyze ex vivo experiments. Half-maximal inhibitory concentrations (IC50) were calculated using sigmoidal Hill kinetics while showing also the corresponding 95% confidence intervals. The correlation between expression and function of ABCB1 and ABCG2 was determined by linear regression. All differences were considered significant at p < 0.05.

[8] = target: T4, AKR1C3 (Homo sapiens, UniProt P42330); assay: Inhibitory assay on HCT116 cells with transient AKR1C3 expression (daunorubicin to daunorubicinol); format: cell-based; settings: HCT116 transfected with AKR1C3, 1 µM daunorubicin, 0.1-10 μM drug, 4 h
T4 sequence (P42330 1-323): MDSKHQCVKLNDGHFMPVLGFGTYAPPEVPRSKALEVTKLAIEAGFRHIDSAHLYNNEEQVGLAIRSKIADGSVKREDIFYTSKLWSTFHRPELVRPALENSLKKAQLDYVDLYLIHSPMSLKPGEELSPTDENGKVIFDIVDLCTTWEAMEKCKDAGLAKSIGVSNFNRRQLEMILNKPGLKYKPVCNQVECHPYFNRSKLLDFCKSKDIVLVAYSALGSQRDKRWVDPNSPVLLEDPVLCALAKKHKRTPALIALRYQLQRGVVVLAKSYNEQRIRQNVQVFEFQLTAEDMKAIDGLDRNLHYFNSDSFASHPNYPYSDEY
Experimental: HCT116 cells were seeded (1.25 × 10^5 cells/well) in 24-well plates and after 24 h in culture transfected with mammalian pCI_AKR1C3 plasmid as described previously. The expression of recombinant AKR1C3 was verified by western blotting using rabbit polyclonal anti-AKR1C3 antibody (ab84327, Abcam, Cambridge, UK). Uniformity of transfection was assumed only when <10% difference was observed between experiments regarding the expression of pCI plasmid containing GFP reporter gene. […] After 4 h incubation (37 °C, 5% CO2), medium was collected, cells were lysed, and resulting samples were handled and analyzed by ultra high-performance liquid chromatography as described previously.

[9] = target: T5, AKR1B1 (Homo sapiens, UniProt P15121); assay: Screening for inhibitory activity on recombinant CRE: AKR1B1; format: biochemical; settings: 50 μM inhibitor concentration; mean ± SD, three experiments
T5 construct: made in house; host or cells: Escherichia coli
Text: as §2

[10] = target: T3, ABCG2; settings: 1 h
Experimental: as §3, §4

[11] = target: T6, AKR1A1 (Homo sapiens, UniProt P14550); assay: Screening for inhibitory activity on recombinant CRE: AKR1A1; format: biochemical; settings: 50 μM inhibitor concentration; mean ± SD, three experiments
T6 construct: made in house; host or cells: Escherichia coli
T6 sequence (P14550 1-325): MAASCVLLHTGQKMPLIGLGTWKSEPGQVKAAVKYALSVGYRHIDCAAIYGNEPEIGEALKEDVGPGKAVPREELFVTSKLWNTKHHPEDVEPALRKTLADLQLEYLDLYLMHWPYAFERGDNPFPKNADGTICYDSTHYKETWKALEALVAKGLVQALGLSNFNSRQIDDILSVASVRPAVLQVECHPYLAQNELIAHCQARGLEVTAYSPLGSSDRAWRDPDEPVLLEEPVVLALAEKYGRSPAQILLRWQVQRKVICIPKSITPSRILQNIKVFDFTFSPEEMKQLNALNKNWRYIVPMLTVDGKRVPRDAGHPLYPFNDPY
Text: as §2

[12] = system: PBMC of AML patients; assay: Apoptosis detection (annexin V/PI) in PBMC of AML patients; format: cell-based, human; settings: vs untreated control, 4 h, cmax concentrations
Experimental: PBMC were isolated from whole blood using Ficoll-Paque PLUS gradient solution (GE Healthcare, Sweden) according to the manufacturer’s instructions. The mononuclear cells thus obtained were washed twice in 6 ml PBS and either transferred to RPMI with 10% FBS and immediately used for experiments or stored frozen in liquid nitrogen. […] The stated concentrations correspond with cmax plasma levels of the respective drugs. […] The cells were then washed in ice-cold PBS and resuspended in 195 µL of 2% FBS in PBS. The anti-human CD34/PE antibody 4H11 (Invitrogen, Carlsbad, CA, USA) was added and incubated on ice for 30 min. This was followed by washing and resuspending in 1 × ABB and staining by annexin V/FITC conjugate as described above. After subsequent staining with PI, the samples were analyzed using the SONY SA3800 spectral cell analyzer.

[13] = target: T4, AKR1C3; assay: Screening for inhibitory activity on recombinant CRE: AKR1C3; format: biochemical; design: made in house; host or cells: Escherichia coli; settings: 50 μM inhibitor concentration; mean ± SD, three experiments
Text: as §2

[14] = target: ABCB1 (Homo sapiens, UniProt P08183); assay: Daunorubicin accumulation in HL-60 ABCB1 cells
Experimental: LY335979 (1 µM) and Ko143 (1 µM) were used as ABCB1 and ABCG2 model inhibitors. After 15 min, daunorubicin (HL-60 and HL-60 ABCB1) or mitoxantrone (HL-60 and HL-60 ABCG2) was added for 1 h at a final concentration of 1 µM (37 °C, 5% CO2).
The data were statistically analyzed in GraphPad Prism 8.0.1 (GraphPad Software, Inc., San Diego, CA, USA). One-way ANOVA with Dunnett’s post hoc test or Student’s t-test was used for results obtained in vitro, and the nonparametric Mann–Whitney test was used to analyze ex vivo experiments. […] The correlation between expression and function of ABCB1 and ABCG2 was determined by linear regression. All differences were considered significant at p < 0.05.

[15] = system: HL-60 ABCG2 cells; assay: Annexin V/PI staining of HL-60 ABCG2 cells; settings: mitoxantrone alone 1 µM, 4 h
Experimental: The cell suspension was preincubated for 15 min, and then, 1 µM mitoxantrone was added. Mitoxantrone, a dual substrate of ABCB1 and ABCG2, was chosen as resistance victim drug for the experiment because there are no fluorescence spillovers with propidium iodide (PI), which limit the usage of daunorubicin in this setup. The cells were incubated for 4 h at 37 °C and 5% CO2, washed and subsequently resuspended in 1 × annexin binding buffer (ABB, 195 µL) followed by addition of 5 µL of annexin V/fluorescein isothiocyanate (FITC) conjugate. The suspension was incubated in darkness for 10 min. Cells were then washed once in 1 × ABB and resuspended in 400 µL of ABB. Prior to the measurement, 10 µL of PI solution was added and cells were analyzed by BD FACSCanto II flow cytometer using excitation/emission wavelengths 488/530 nm and 488/670 for FITC and PI, respectively.

[16] = system: HL-60 ABCG2 cells; assay: Sub-G1 fraction of HL-60 ABCG2 cells; settings: mitoxantrone alone 1 µM, 4 h
Experimental: Estimation of fractional DNA content in the late stage of apoptosis was additionally used to clarify the results of annexin V/PI staining. […] The fluorescent substrates daunorubicin (0.2 µM) or mitoxantrone (1 µM) were then added and the suspensions incubated for 4 h at 37 °C and 5% CO2. Afterwards, the cells were resuspended in 2% FBS in PBS and fixed with ice-cold 70% ethanol for at least 30 min at −20 °C. After fixation, the cells were diluted and washed twice with 2% FBS in PBS. Then, 50 µL of RNAse A (100 µg/mL) was applied to ensure that only DNA would be present. Next, 200 µL of PI (50 µg/mL) was added to stain the DNA content of the cells. The samples were incubated for 1 h at 37 °C and 5% CO2. Analysis was performed using a SONY SA3800 spectral cell analyzer. The percentage of cells displaying hypodiploid DNA content is presented as a sub-G1 region of a PI histogram.

[17] = CDKI (1, 10, 25 µM abemaciclib, palbociclib, ribociclib) + 0.2 µM daunorubicin

T1 sequence (O60218 whole entry): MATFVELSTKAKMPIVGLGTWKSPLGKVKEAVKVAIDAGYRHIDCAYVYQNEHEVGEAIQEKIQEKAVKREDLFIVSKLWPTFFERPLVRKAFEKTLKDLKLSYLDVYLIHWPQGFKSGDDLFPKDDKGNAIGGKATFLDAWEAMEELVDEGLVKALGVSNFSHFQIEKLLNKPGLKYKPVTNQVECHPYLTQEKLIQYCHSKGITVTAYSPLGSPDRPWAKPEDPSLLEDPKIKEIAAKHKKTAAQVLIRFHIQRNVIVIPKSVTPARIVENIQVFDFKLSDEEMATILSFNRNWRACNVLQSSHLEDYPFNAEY
Sequence of ABCB1 (P08183 whole entry): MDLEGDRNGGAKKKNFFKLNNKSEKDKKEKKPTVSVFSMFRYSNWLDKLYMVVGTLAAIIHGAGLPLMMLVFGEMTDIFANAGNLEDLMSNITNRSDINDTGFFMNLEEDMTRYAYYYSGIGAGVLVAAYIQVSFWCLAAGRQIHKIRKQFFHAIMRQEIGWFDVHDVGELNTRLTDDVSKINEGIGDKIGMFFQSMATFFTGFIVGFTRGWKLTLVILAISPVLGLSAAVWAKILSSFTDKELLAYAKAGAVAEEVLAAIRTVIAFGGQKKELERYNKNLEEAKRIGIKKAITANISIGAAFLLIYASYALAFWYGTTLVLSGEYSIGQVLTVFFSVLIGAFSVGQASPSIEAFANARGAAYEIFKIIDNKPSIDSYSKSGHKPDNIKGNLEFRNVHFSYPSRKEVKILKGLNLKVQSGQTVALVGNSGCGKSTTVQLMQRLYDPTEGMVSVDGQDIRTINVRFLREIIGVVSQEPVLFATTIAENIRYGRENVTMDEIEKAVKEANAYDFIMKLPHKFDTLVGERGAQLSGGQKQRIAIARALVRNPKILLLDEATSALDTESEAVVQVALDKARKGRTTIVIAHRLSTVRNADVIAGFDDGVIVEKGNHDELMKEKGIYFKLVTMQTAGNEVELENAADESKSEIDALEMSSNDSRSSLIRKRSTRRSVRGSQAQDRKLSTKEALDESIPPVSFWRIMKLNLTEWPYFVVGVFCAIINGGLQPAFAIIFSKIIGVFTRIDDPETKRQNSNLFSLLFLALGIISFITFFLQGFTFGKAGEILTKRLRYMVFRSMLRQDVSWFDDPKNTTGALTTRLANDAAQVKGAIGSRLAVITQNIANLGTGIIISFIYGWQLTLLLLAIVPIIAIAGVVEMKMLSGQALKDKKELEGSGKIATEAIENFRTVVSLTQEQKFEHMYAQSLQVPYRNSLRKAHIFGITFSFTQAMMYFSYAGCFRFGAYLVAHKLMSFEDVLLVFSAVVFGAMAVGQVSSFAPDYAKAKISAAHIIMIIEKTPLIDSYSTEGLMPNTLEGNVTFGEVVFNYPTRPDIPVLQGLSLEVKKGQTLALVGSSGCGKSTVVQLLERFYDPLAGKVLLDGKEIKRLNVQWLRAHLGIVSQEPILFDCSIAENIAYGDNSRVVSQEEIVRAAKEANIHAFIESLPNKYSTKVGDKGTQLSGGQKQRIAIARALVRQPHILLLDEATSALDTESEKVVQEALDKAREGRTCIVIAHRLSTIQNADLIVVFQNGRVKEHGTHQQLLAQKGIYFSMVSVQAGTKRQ

Row | SMILES | increase of median mitoxantrone accumulation ([1]; CD34+ PBMC) | effect on median mitoxantrone accumulation [1] | increase of median mitoxantrone accumulation ([1]; FLT3-ITD− population) | sub-G1 fraction [2, 17] | inhibition at 50 µM [3] | proapoptotic effect (sub-G1) as a single drug [4] | inhibition at 50 µM [5] | IC50 [7] | changes in intracellular reduction of daunorubicin to daunorubicinol [8] | inhibition at 50 µM [9] | fold lower potency toward ABCG2 compared to ABCB1 [10] | inhibition at 50 µM [11] | changes in PBMC apoptosis after single drug exposure [12] | inhibition at 50 µM [13] | IC50 [14] | Cmax ([6]; human, in vivo) | also measured
1 | CC(=O)c1c(C)c2cnc(Nc3ccc(N4CCNCC4)cn3)nc2n(C2CCCC2)c1=O [Palbociclib, palbociclib] | 33.4% | did not affect | 3.58% | 30.7% | 0% | Neither abemaciclib, palbociclib, nor ribociclib caused a significant proapoptotic effect | 0% | 45.5 µM | did not show any changes | 5.54 ± 3.4% | 6.8 fold | 0% | no significant changes | 23.5 ± 6.67% | 6.65 µM | – | Cmax ([6]; read-out: cmax plasma levels, standard dosing, concentration used in PBMC experiments): 500 nM; ABCG2 IC50 fold higher than cmax [10]: approximately 100 fold
2 | CN(C)C(=O)c1cc2cnc(Nc3ccc(N4CCNCC4)cn3)nc2n1C1CCCC1 [Ribociclib, ribociclib] | 60.5% | did not affect | 28.6% | 35.6% | 7.41 ± 1.08% | Neither abemaciclib, palbociclib, nor ribociclib caused a significant proapoptotic effect | 0% | 26.9 µM | did not show any changes | 4.58 ± 2.41% | – | 0% | no significant changes | 36.2 ± 2.83% | – | 7500 nM | –
3 | COc1cccc2c1C(=O)c1c(O)c3c(c(O)c1C2=O)C[C@@](O)(C(C)=O)C[C@@H]3O[C@H]1C[C@H](N)[C@H](O)[C@H](C)O1 [daunorubicin] | – | – | – | – | – | – | – | – | – | – | – | – | – | – | – | – | sub-G1 fraction ([2]; daunorubicin alone 0.2 µM): 13.1%
4 | CCN1CCN(Cc2ccc(Nc3ncc(F)c(-c4cc(F)c5nc(C)n(C(C)C)c5c4)n3)nc2)CC1 [Abemaciclib, abemaciclib] | 37.4% | did not affect | 16.4% | 47.5% | 2.08 ± 0.4% | Neither abemaciclib, palbociclib, nor ribociclib caused a significant proapoptotic effect | 0% | 2.98 µM | did not show any changes | 0% | 8.4 fold | 0% | no significant changes | 26.3 ± 1.3% | 0.354 µM | 500 nM | –
5 | O=C1c2c(O)ccc(O)c2C(=O)c2c(NCCNCCO)ccc(NCCNCCO)c21 [mitoxantrone] | – | – | – | – | – | – | – | – | – | – | – | – | – | – | – | – | annexin V+ population [15]: 25.2%; sub-G1 fraction [16]: 46.2%
